Where two headings read alike, the source gives them in different places.
Tests used:
[1] = Acute toxicity in mice, endoperitoneal administration (LD50, Lichtfield and Wilcoxon); parameters: species or system mouse (Swiss albino); conditions: in vivo, ip, mouse, mortality within eight days
Description: (§1) Acute toxicity was determined on Swiss albino mice having an average weight of about 20 grams and on Wistar rats having an average weight of 150±10 grams by endoperitoneal administration. All animals were kept fasting for 12 hours before the trial. For the trial, 10 animals, namely 5 males and 5 females, were used for each dose level.
(§2) The LD50 values, expressed as mg/kg, are calculated on the basis of the mortality determined within eight days from administration, in accordance with the Lichtfield and Wilcoxon method.

[2] = system: ulcers induced by cold stress; assay: Antiulcer activity against ulcers induced by cold stress; assay type: in vivo, rat (Wistar); conditions: rat, oral
Description: 3. ANTIULCER ACTIVITY against ulcers induced by cold stress: This trial was carried out on Wistar rats weighing about 300 grams each.
The animals were divided randomly into groups of 10 animals each and kept without food for 18 hours before the trial, but had unrestricted water. […]
After ligature, the animals were placed in a refrigerator at a temperature of between 2° C. and 4° C. for two hours.
After this time the rats were sacrificed, their stomachs were withdrawn and opened along the small curvature, and the gastric mucosa checked.
The number of ulcers was counted and their relative diameters measured. From these individual data the mean value for each treatment group was obtained and the inhibition capacity calculated as a percentage relative to the control group, using the following formula: [formula] where C is the mean value in mm for the control group and T the mean value for the group treated with the derivative under examination.

[3] = Acute toxicity in rats, endoperitoneal administration (LD50, Lichtfield and Wilcoxon); parameters: species or system rat (Wistar); conditions: in vivo, ip, rat, mortality within eight days
Description: as §1, §2

[4] = system: ulcers induced by ligature of the pylorus; assay: Antiulcer activity against ulcers induced by ligature of the pylorus (Shay test); assay type: in vivo, rat (Sprague Dawley); conditions: rat, oral
Description: 2. ANTIULCER ACTIVITY against ulcers induced by ligature of the pylorus (Shay test): Groups of 10 Sprague Dawley rats of body weight between 200 and 250 grams were placed in cages under conditions of standard temperature (21°±2° C.), standard relative humidity (60-70%) and standard light (12 hours per day).
The animals were fed with rat pellets and with water at will.
The derivatives to be tested were administered orally 6, 12, 24 and 36 hours before ligature of the pylorus, after dispersion in physiological solution using Tween 80 as dispersant in a quantity of 1% and carboxymethylcellulose in a quantity of 0.2%. The volume administered was 10 ml/kg.
Before ligature, the rats had been kept without food for 18 hours but with free access to water, the pylorus ligature then being made under ether anesthetic, with suture of the peritoneum and of the abdominal wall.
The animals were then kept without food or water, and 18 hours after ligature were sacrificed using chloroform, their stomachs then being withdrawn and opened along the small curvature.
The gastric surface was extended to observe the ulcers, the evaluation being made by measuring their maximum width.

[5] = species not given, prior art; cited from earlier work
[6] = prior art, cited from earlier work
[7] = 6 h before cold stress, read-out: ED50 by oral administration at 6 h before commencement of cold stress
[8] = 12 h before cold stress, * P < 0.05 versus WAS 4303 (so in the source), read-out: ED50 by oral administration at 12 h before commencement of cold stress
[9] = 24 h before cold stress, * P < 0.05 versus WAS 4303 (so in the source), read-out: ED50 by oral administration at 24 h before commencement of cold stress
[10] = 36 h before cold stress, * P < 0.05 versus WAS 4303 (so in the source), read-out: ED50 by oral administration at 36 h before commencement of cold stress
[11] = 6 h before pylorus ligature, read-out: ED50 by oral administration at 6 h before pylorus ligature
[12] = 12 h before pylorus ligature, * P < 0.05 versus WAS 4303 (so in the source), read-out: ED50 by oral administration at 12 h before pylorus ligature
[13] = 24 h before pylorus ligature, * P < 0.05 versus WAS 4303 (so in the source), read-out: ED50 by oral administration at 24 h before pylorus ligature
[14] = 36 h before pylorus ligature, * P < 0.05 versus WAS 4303 (so in the source), read-out: ED50 by oral administration at 36 h before pylorus ligature

| SMILES | LD50 at 192 h [1] [mg/kg] | ED50 [2, 7] [mg/kg] | ED50 [2, 8] [mg/kg] | ED50 [2, 9] [mg/kg] | ED50 [2, 10] [mg/kg] | LD50 at 192 h [3] [mg/kg] | ED50 [4, 11] [mg/kg] | ED50 [4, 12] [mg/kg] | ED50 [4, 13] [mg/kg] | ED50 [4, 14] [mg/kg] | LD50 for intraperitoneal administration [5] [mg/kg] | antiulcer activity when administered intraperitoneally ([6]; intraperitoneal, experimental tests) | duration of activity [6] |
| --- | --- | --- | --- | --- | --- | --- | --- | --- | --- | --- | --- | --- | --- |
| CCCCCCCCCC(=O)O[C@H](c1ccccc1)[C@H](C)N(C)CC=C1c2ccccc2CCc2ccccc21 (relative stereo) [ET 2001] | 585 | 0.4 | 0.9 | 1.2 | 2.1 | 510 | 0.5 | 0.5 | 0.7 | 1.3 | – | – | – |
| C[C@@H]([C@H](OC(=O)c1cccnc1)c1ccccc1)N(C)CC=C1c2ccccc2CCc2ccccc21 (relative stereo) [ET 2003] | 580 | 0.6 | 0.9 | 1.3 | 1.7 | 618 | 0.4 | 0.4 | 0.7 | 1.2 | – | – | – |
| C[C@@H]([C@H](OC(=O)c1cccs1)c1ccccc1)N(C)CC=C1c2ccccc2CCc2ccccc21 (relative stereo) [ET 2004] | 630 | 0.6 | 0.8 | 1.4 | 1.8 | 681 | 0.5 | 0.4 | 0.6 | 1 | – | – | – |
| C[C@@H]([C@H](O)c1ccccc1)N(C)CC=C1c2ccccc2CCc2ccccc21 (relative stereo) [WAS 4304, reference compound] | 127 | 0.4 | 1.6 | 2.5 | 2.8 | 87 | 0.2 | 1.1 | 1.8 | 2.4 | 115 | very interesting antiulcer activity | very limited duration |
| C[C@@H]([C@H](OC(=O)C(N)Cc1cnc[nH]1)c1ccccc1)N(C)CC=C1c2ccccc2CCc2ccccc21 (some centres unmarked) [ET 2002] | 535 | 0.7 | 1 | 1.4 | 1.9 | 590 | 0.4 | 0.5 | 0.8 | 1.1 | – | – | – |

— patent US4990522A, “Esterified ephedrine derivatives with prolonged antiulcer activity” (Establissement Texcontor, priority 1987, dated 1991)
